From patent publication US20150289512A1, “METHOD FOR PROMOTING PLANT GROWTH” (SUMITOMO CHEMICAL COMPANY, LIMITED, priority 2012, published 2015)

These molecules were tested on Nicotiana benthamiana (assay: Test Example 6: growth promotion under low-temperature stress by hydroponics of Nicotiana benthamiana, 0.1 ppm). Conditions: 0.1 ppm in medium, low-temperature stress 7 days at 1.5±1.0° C., green leaf area 3 days later, equation (1).
Type: in vivo
Method in brief: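 Seeds grown in half-strength Murashige–Skoog medium (pH 5.8), compound at 0.1 ppm (0.1% DMSO), 7 days at 22 °C, 4,000 lux, 16 h day; then 7 days at 1.5±1.0 °C, 2,000 lux; then 3 days recovery at 22 °C. Green leaf area imaged; relative leaf area versus DMSO controls before and after cold, ≥5 scored as mitigating.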

Structure (SMILES) | relative leaf area (% of untreated control) at 0.1 ppm [%]
COC(=O)c1oc2ccccc2c1NC(=O)C(F)(F)F [Compound 39] | ≥ 5
O=C(Nc1ccccc1)c1oc2ccc(C(F)(F)F)cc2c1C(F)(F)F [Compound 76] | ≥ 5
COC(=O)c1oc2ccc(C(F)(F)F)cc2c1N(C(C)=O)C(C)=O [Compound 64] | ≥ 5
Cc1c(C(=O)O)oc2ccccc12 [Compound 36] | ≥ 5
CCOC(=O)c1oc2cccc(O)c2c1C [Compound 80] | ≥ 5
NC(=O)c1oc2ccc(C(F)(F)F)cc2c1C(F)(F)F [Compound 74] | ≥ 5
COC(=O)c1oc2ccc(C(F)(F)F)cc2c1N(C)C [Compound 62] | ≥ 5
COC(=O)c1oc2ccc(C(F)(F)F)cc2c1NC(=O)C(F)(F)F [Compound 65] | ≥ 5
COC(=O)c1oc2ccc(C(F)(F)F)cc2c1NS(=O)(=O)c1ccccc1 [Compound 68] | ≥ 5
COC(=O)c1oc2ccc(C(F)(F)F)cc2c1O [Compound 50] | ≥ 5
O=C(Nc1ccccc1)c1cc2cc(C(F)(F)F)ccc2o1 [Compound 53] | ≥ 5
O=C(O)c1nc2c(F)cc(F)cc2s1 [Compound 86] | ≥ 5
O=C(OCc1ccccc1)c1cc2cc(C(F)(F)F)ccc2o1 [Compound 56] | ≥ 5
O=C(OCc1ccccc1)c1oc2ccc(C(F)(F)F)cc2c1C(F)(F)F [Compound 73] | ≥ 5
CCOC(=O)c1oc2ccc(C(F)(F)F)cc2c1C(F)(F)F [Compound 71] | ≥ 5
O=C(O)c1oc2ccc(C(F)(F)F)cc2c1C(F)(F)F [Compound 69] | ≥ 5
O=C(O)c1cc2cc(Br)ccc2o1 [Compound 79] | ≥ 5
COC(=O)c1cc2cc(C(F)(F)F)ccc2o1 [Compound 3, methyl 5-(trifluoromethyl)benzofuran-2-carboxylate] | ≥ 5
NC(=O)c1oc2ccccc2c1C(F)(F)F [Compound 85] | ≥ 5
O=C(O)c1cc2c(C(F)(F)F)cccc2o1 [Compound 43] | ≥ 5
COC(=O)c1cc2c(C(F)(F)F)cccc2o1 [Compound 45] | ≥ 5
O=C(NCc1ccccc1)c1oc2ccc(C(F)(F)F)cc2c1C(F)(F)F [Compound 77] | ≥ 5
COC(=O)c1oc2ccc(C(F)(F)F)cc2c1NC(C)=O [Compound 63] | ≥ 5
O=C(NCc1ccccc1)c1cc2cc(C(F)(F)F)ccc2o1 [Compound 54] | ≥ 5
COC(=O)c1oc2ccc(C(F)(F)F)cc2c1C(F)(F)F [Compound 70] | ≥ 5
CNC(=O)c1cc2cc(C(F)(F)F)ccc2o1 [Compound 52] | ≥ 5
